Where “and” joins values, the source holds several entries; their conditions need not be identical. Equal entries are not always repeated. Entries after “also recorded” stand apart in the source; their conditions may differ.
Tests used:
[1] = tested on: angiotensin II infused rats; assay: Assay A, angiotensin II infusion model: systolic blood pressure by tail-cuff; format: in vivo, Male Wistar rats; details: angiotensin II 25 ng/min sc, 1% NaCl; eplerenone 100 mpk; aldosterone in adrenalectomized rats; 4 weeks
Description: Human cardiovascular disorders are complex conditions, often initiated by vascular hypertension or a myocardial infarction (MI). In order to determine the probable effectiveness of a therapy for cardiovascular disorders, it is important to determine the potency of components in several assays. Accordingly, in Assay “A”, the efficacy of the aldosterone antagonist epeplerenone (epoxymexrenone) was determined in a hypertensive rat model with vascular inflammation, using angiotensin II infusion. In Assay “B” a study is described evaluating the efficacy of the aldosterone antagonist epeplerenone (epoxymexrenone) in a rat model using aldosterone infusion to produce hypertension with vascular inflammation. In Assay “C” a further study is described evaluating the efficacy of the aldosterone antagonist epeplerenone (epoxymexrenone) in a rat model using aldosterone infusion to produce hypertension with vascular inflammation.
Assay A: In Vivo Angiotensin II Infusion Model
Male Wistar rats (n=50, 10/group; BW=200 g)
SBP measured by tail-cuff every week

[2] = tested on: coronary arteries of angiotensin II/salt-treated animals; assay: Assay A: heart histology (hematoxylin&eosin), vascular inflammatory lesions and myocardial injury; format: in vivo, Male Wistar rats; details: eplerenone 100 mpk; for Vascular inflammation and myocardial injury in the heart: angiotensin II infused rats, aldosterone replacement in adrenalectomized rats
Excerpt: Sacrifice by exanguination after 4 weeks. Blood was be collected in dry tubes for determination of serum electrolytes and in EDTA-containing tubes for measurement of aldosterone and corticosterone levels Hearts were stained with hematoxylin&eosin and have been analyzed for determination of morphologic abnormalities (i.e. necrosis, vascular injury).

osteopontin = assay: Assay A: immunostaining of hearts with osteopontin-specific antibody; format: in vivo, Male Wistar rats; details: angiotensin II-infused, saline-drinking rats; eplerenone 100 mpk; aldosterone replacement in adrenalectomized rats
Excerpt: Osteopontin (also known as early T-cell activation-1, Eta-1) is a secreted glycoprotein with pro-inflammatory characteristics that mediates chemoattraction, activation and migration of monocytes.

[3] = tested on: aldosterone-infused, saline-drinking, uni-nephrectomized rats; assay: Assay B: heart histology (hematoxylin&eosin), vascular inflammatory lesions and myocardial injury; format: in vivo, Male Sprague Dawley rats; details: eplerenone 100 mpk p.o., 0.6% KCl group, 4 weeks
Description: Assay B: In Vivo Aldosterone Infusion Model Male Sprague Dawley rats (n=39; BW=250 g) […] Uni-nephrectomy performed during implantation of mini-pumps 2. Aldosterone ([…], sc via alzet minipump) 2. […] 1. […] Sacrifice after 4 weeks. Hearts were harvested and divided by half through a transverse section at the mid-ventricles: The upper half was stored into formalin. The bottom part was snap-frozen in liquid nitrogen for biochemical analysis. Hearts were stained with hematoxylin&eosin and the collagen specific dye picro-sirius red and were analyzed for determination of interstitial collagen volume fraction and morphologic abnormalities (i.e. necrosis, vascular injury).

Collagen III = assay: Assay C: Collagen III mRNA by TaqMan RT-PCR; format: in vivo, Male Sprague-Dawley rats; details: for Collagen-III (AU): collagen type III mRNA relative to cyclophilin, eplerenone dose 100 mg/kg/day
Description: The procedure of Assay B was expanded upon in a further study. […] Myocardial tissue from animals in each treatment group was examined after 7, 14, or 30 days of treatment.
Potassium chloride supplementation was added to the saline solution in order to prevent the potential hypokalemia associated with aldosterone excess.
At the time of the surgery, an Alzet 2002 osmotic minipump (Alza Corp., Palo Alto, Calif.) containing either vehicle (9% ethanol/87% propylene glycol/4% dH2O) or 1.0 mg/mL d-aldosterone (Sigma Chemical, St. Louis, Mo.) was inserted subcutaneously at the nape of the neck. Aldosterone was administered at a dose of 0.75 µg/hour. […] Animals were sacrificed from each group (n=8-13) after 7, 14, or 30 days of treatment.
The fluorogenic 5′-nuclease assay (TaqMan PCR) using Applied Biosystems' 7700 Sequence Detection System (Applied Biosystems, Foster City, Calif.) allowed for real time detection/quantitation of a specific gene by monitoring the increase in fluorescence of a gene-specific, dye-labeled oligonucleotide probe. Probes for target and reference genes were labeled at the 5′-end with a 6-carboxyfluorescein (6FAM) reporter dye and at the 3′-end with a 6-carboxy-N,N,N′,N′-tetramethylrhodamine (TAMRA) quencher dye. When the probe was annealed to the target gene, fluorescence of 6FAM was prevented by the close proximity of TAMRA. The exonuclease activity of Taq polymerase released the dyes from the oligonucleotide probe by displacing the probe from the target sequence resulting in fluorescence excitation in direct proportion to the amount of target message present. Data analysis was performed using the Sequence Detection System software from Applied Biosystems.
Primers and probes were designed using Oligo Primer Analysis Software, Version 5.0 (National Biosciences Inc. (NBI)-Wojciech Rychlik, Cascade, Colo.). Primers were synthesized by Life Technologies (Grand Island, N.Y.) and probes were synthesized by Applied Biosystems. Primer/probe sets were designed from known sequences of rat genes to be analyzed. All target gene values were normalized to a reference gene, constitutively expressed cyclophilin. Primer/probe sets sequences can be found in Table 8
RNA was extracted from frozen (−70° C.) left ventricle (LV) tissue (approximately 10-20 mg) using 1.5 mL RNA-STAT 60 according to manufacturer's instructions (Leedo Medical Laboratories, Inc., Houston, Tex.). Briefly, tissues were homogenized using a tissue homogenizer equipped with a 5 mm probe (Ultra-Turrax T8 Homogenizer, IKA Works, Inc. Wilmington, N.C.). Following homogenization, an equal volume of molecular grade chloroform (Sigma Chemical Co., St. Louis, Mo.) was incubated with periodic mixing for 10 min at room temperature. Samples were centrifuged at 12,000 g for 10 min and RNA was precipitated from the top layer by adding an equal volume of molecular grade isopropanol (Sigma Chemical Co.) followed by an overnight incubation at −80° C. RNA was pelleted by centrifugation at 12,000 g, washed with 75% ethanol, and solubilized in nuclease-free water (Promega, Madison, Wis.).
Double-stranded cDNA was synthesized by adding 400 ng RNA (4 uL) to a final volume of 20 uL containing 15% nuclease-free water (Promega, Madison, Wis.), 1×RT Buffer (Life Technologies, Grand Island, N.Y.), 10 mM DTT (Life Technologies), 0.5 mM each of dATP, dTTP, dGTP, dCTP (PE Biosystems, Foster City, Calif.), 2.5 μM Oligo d(T)15 (Oligo Therapeutics, Inc., Wilsonville, Oreg.), 40 units RNAsin (Promega), and 200 units SuperScript II Reverse Transcriptase (Life Technologies). The reactions were performed in thin-walled reaction tubes with caps (Applied Biosystems) to ensure accurate reaction temperatures.

[4] = mean ± SEM after 7 days of treatment
[5] = mean ± SEM after 14 days of treatment
[6] = mean ± SEM after 30 days of treatment
[7] = group mean, data used for Table 15 (14 days of treatment)
[8] = group mean, data used for Table 16 (30 days of treatment)

Row | SMILES | Systolic Blood Pressure [1] | Vascular inflammation and myocardial injury in the heart [2] | Osteopontin expression in the heart (immunostaining) (osteopontin) | Vascular inflammatory changes / myocardial injury [3] | Collagen-III (AU) (Collagen III; [4]) | Collagen-III (AU) (Collagen III; [5]) | Collagen-III (AU) (Collagen III; [6]) | Collagen-III mRNA (AU) (Collagen III; [7]) | Collagen-III mRNA (AU) (Collagen III; [8]) | Collagen-III mRNA (AU) (Collagen III; individual rats, data used for Table 15 (14 days of treatment), incl. rat marked * excluded from statistics, listed as Aldosterone + salt) | Collagen-III mRNA (AU) (Collagen III; individual rats, data used for Table 16 (30 days of treatment), incl. rat marked * excluded from statistics, listed as Aldosterone + salt) | Animals with vascular inflammatory changes (lesions) in the coronary arteries ([2]; of ten animals per group, angiotensin II/salt, 4 weeks) | Collagen-III mRNA (AU) (Collagen III; individual rats, data used for Table 15 (14 days of treatment), incl. rat marked * excluded from statistics, listed as Eplerenone + aldosterone + salt) | Collagen-III mRNA (AU) (Collagen III; individual rats, data used for Table 16 (30 days of treatment), incl. rat marked * excluded from statistics, listed as Eplerenone + aldosterone + salt)
1 | C[C@]12CCC(=O)C=C1CC[C@@H]1[C@@H]2[C@@H](O)C[C@]2(C=O)[C@@H](C(=O)CO)CC[C@@H]12 [Aldosterone] | increased blood pressure | restored the severe coronary and myocardial inflammation and injury | restored osteopontin expression | severe vascular inflammatory lesions | 1.42 ± 0.12 | 1.08 ± 0.14 | 1.39 ± 0.20 | 1.08 | 1.39 | 0.76 AU and 1.80 AU and 0.44 AU and 1.39 AU and 1.17 AU and 1.24 AU and 1.06 AU and 1.31 AU and 0.59 AU and 1.22 AU | 0.75 AU and 0.58 AU and 1.99 AU and 0.72 AU and 2.04 AU and 1.43 AU and 1.82 AU and 1.89 AU and 1.28 AU |  |  | 
2 | COC(=O)[C@@H]1CC2=CC(=O)CC[C@]2(C)[C@@]23O[C@@H]2C[C@@]2(C)[C@@H](CC[C@@]24CCC(=O)O4)[C@H]13 [Eplerenone] | Neither eplerenone nor adrenalectomy reduced blood pressure | prevention | prevented osteopontin expression | prevention; also recorded: completely prevented | 1.09± 0.21 | 1.61 ± 0.26 | 1.53 ± 0.23 | 1.61 | 1.53 |  |  | one of the ten | 0.60 AU (2×) and 1.19 AU and 1.16 AU and 1.24 AU and 1.70 AU and 1.81 AU and 1.61 AU and 2.21 AU and 1.80 AU and 3.77 AU | 0.95 AU and 0.72 AU and 1.37 AU and 0.89 AU and 1.26 AU and 1.87 AU and 1.66 AU and 2.89 AU and 2.16 AU and 0.73 AU

Source: US6716829B2, “Aldosterone antagonist and cyclooxygenase-2 inhibitor combination therapy to prevent or treat inflammation-related cardiovascular disorders” (Pharmacia Corporation, priority 2000, dated 2004)
